Earlier results, collected in US12237054B2, “Model for high-throughput screening of endocrine disruptor and method for screening same” (Nanjing University, priority 2018, dated 2025).

Tested on: HEK293T
Conditions: standardized Activity value, data from public databases (ToxCast/Tox21, ChEMBL)

CC(C)C(=O)Nc1ccc([N+](=O)[O-])c(C(F)(F)F)c1 [Flutamide]
cytotoxicity experimental value: 4.4
